Test results: ChEMBL document CHEMBL5291721, “A preclinical secondary pharmacology resource illuminates target-adverse drug reaction associations of marketed drugs” (Nat Commun, 2023)

Key:
Adenosine receptor A2a = Adenosine receptor A2a (Homo sapiens, UniProt P29274)
Adenosine receptor A3 = target: T1, Adenosine receptor A3 (Homo sapiens, UniProt P0DMS8)
T1 sequence (P0DMS8 whole entry): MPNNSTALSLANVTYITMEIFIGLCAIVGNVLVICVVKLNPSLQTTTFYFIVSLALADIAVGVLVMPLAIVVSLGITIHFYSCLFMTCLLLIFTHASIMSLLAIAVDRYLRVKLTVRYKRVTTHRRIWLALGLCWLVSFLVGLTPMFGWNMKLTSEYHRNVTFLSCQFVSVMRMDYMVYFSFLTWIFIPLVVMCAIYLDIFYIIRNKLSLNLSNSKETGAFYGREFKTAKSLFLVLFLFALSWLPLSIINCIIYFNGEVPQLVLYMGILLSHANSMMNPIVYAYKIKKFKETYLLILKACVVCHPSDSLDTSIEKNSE

[1] = target: T2, Alpha-1A adrenergic receptor (Homo sapiens, UniProt P35348); type: functional, cell-based
T2 sequence (P35348 whole entry): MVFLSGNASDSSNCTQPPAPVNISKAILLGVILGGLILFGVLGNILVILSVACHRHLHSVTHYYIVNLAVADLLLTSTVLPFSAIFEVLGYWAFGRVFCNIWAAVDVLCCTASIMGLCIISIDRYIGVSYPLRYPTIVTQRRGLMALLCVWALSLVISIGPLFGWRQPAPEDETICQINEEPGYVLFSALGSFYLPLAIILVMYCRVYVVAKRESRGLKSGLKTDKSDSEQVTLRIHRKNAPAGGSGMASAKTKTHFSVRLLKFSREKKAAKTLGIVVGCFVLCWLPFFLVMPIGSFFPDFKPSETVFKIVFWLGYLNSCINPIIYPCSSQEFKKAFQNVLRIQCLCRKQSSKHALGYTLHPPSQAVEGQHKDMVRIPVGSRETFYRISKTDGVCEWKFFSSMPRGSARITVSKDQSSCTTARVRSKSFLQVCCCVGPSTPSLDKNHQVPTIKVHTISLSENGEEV

[2] = target: Beta-2 adrenergic receptor (Homo sapiens, UniProt P07550); type: functional, cell-based
Vasopressin V1a receptor = Vasopressin V1a receptor (Homo sapiens, UniProt P37288)
Vasopressin V2 receptor = Vasopressin V2 receptor (Homo sapiens, UniProt P30518)
[3] = target: T3, Muscarinic acetylcholine receptor M2 (Homo sapiens, UniProt P08172); type: functional, cell-based
T3 sequence (P08172 whole entry): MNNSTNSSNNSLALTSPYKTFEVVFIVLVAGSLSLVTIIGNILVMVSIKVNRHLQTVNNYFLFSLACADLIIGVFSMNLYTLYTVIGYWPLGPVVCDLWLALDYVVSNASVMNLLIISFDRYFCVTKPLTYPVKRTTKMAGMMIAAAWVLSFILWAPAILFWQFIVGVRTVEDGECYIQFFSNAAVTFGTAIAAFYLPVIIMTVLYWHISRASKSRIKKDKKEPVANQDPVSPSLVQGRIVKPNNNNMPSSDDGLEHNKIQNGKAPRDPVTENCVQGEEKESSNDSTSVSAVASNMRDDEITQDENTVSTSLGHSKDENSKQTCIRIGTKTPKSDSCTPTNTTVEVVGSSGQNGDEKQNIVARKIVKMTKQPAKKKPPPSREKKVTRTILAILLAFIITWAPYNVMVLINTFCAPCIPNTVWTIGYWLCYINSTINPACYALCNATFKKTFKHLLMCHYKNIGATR

[4] = target: Gamma-aminobutyric acid receptor subunit alpha-1 (Rattus norvegicus, UniProt P62813)
Motilin receptor = Motilin receptor (Homo sapiens, UniProt O43193)
[5] = target: 3',5'-cyclic-AMP phosphodiesterase 4D (Homo sapiens, UniProt Q08499); type: functional
Mu-type opioid receptor = Mu-type opioid receptor (Homo sapiens, UniProt P35372)
[6] = target: cGMP-inhibited 3',5'-cyclic phosphodiesterase 3A (Homo sapiens, UniProt Q14432); type: functional
[7] = target: T2, Alpha-1A adrenergic receptor; type: functional, cell-based; remark: listed apart in the source
[8] = target: 5-hydroxytryptamine receptor 2B (Homo sapiens, UniProt P41595); type: functional, cell-based
Note: assay procedure not described here.

Sequence of Vasopressin V2 receptor (P30518 whole entry): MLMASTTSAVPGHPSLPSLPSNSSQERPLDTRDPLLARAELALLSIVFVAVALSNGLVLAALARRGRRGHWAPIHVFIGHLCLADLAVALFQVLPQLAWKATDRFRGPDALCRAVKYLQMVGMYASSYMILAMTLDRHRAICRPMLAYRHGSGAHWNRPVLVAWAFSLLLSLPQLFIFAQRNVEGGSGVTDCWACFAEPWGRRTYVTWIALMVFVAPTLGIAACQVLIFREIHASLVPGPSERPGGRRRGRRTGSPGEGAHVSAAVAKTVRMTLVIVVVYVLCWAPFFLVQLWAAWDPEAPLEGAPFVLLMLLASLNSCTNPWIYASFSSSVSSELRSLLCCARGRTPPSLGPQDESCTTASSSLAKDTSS
Sequence of 3',5'-cyclic-AMP phosphodiesterase 4D (Q08499 whole entry): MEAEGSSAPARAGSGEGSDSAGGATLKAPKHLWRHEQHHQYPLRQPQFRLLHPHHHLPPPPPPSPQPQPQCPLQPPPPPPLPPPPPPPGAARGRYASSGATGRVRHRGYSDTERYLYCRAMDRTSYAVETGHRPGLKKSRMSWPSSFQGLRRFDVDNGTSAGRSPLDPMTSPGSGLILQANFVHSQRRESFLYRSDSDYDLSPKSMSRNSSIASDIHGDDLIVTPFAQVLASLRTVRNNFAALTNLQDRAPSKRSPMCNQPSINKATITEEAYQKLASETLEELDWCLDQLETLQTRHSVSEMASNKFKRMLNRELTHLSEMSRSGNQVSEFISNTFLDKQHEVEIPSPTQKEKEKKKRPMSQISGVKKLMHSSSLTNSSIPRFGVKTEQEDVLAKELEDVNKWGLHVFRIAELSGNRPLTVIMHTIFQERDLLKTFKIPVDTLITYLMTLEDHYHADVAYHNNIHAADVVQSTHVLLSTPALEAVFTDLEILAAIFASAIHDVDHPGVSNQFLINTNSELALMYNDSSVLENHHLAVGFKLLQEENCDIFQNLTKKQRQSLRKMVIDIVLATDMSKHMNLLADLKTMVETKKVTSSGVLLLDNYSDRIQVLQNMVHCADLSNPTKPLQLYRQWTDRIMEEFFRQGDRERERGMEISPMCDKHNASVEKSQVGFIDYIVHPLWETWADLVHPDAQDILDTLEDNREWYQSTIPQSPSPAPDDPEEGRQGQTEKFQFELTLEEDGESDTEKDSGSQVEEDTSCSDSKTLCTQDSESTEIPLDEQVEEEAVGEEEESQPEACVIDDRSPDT
Sequence of Adenosine receptor A2a (P29274 whole entry): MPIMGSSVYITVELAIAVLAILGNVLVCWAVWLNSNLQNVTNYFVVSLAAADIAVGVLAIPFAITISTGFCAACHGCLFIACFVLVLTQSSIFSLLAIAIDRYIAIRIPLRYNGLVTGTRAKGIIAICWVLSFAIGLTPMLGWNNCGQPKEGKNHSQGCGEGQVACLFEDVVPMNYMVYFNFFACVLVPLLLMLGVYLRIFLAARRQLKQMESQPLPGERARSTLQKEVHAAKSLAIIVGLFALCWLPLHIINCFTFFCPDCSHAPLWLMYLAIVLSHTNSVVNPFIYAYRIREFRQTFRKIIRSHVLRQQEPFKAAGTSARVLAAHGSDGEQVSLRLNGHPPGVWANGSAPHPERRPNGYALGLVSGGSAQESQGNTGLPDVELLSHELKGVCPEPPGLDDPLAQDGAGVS
Sequence of Gamma-aminobutyric acid receptor subunit alpha-1 (P62813 whole entry): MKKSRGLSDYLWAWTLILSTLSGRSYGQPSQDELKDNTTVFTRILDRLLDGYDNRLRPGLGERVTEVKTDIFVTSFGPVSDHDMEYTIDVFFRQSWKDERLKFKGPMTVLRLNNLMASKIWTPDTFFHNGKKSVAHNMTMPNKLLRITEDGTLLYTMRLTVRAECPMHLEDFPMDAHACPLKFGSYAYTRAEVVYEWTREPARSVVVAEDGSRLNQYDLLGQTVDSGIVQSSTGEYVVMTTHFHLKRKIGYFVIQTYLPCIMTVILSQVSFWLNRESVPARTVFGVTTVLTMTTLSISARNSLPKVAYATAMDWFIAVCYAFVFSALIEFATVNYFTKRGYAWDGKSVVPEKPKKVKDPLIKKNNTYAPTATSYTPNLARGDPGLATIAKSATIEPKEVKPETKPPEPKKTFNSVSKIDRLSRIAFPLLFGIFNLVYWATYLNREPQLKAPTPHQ
Sequence of Beta-2 adrenergic receptor (P07550 whole entry): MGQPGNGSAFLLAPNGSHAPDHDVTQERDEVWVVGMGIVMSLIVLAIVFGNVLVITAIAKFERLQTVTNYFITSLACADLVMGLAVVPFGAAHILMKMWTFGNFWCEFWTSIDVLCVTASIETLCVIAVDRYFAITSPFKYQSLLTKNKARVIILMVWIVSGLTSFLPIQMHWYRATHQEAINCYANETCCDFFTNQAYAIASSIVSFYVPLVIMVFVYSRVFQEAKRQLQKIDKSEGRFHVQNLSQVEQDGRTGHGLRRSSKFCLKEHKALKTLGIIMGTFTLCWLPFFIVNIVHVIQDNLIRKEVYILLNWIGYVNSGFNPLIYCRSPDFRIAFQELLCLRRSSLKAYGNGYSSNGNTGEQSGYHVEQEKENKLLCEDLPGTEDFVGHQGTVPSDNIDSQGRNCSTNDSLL
Sequence of cGMP-inhibited 3',5'-cyclic phosphodiesterase 3A (Q14432 whole entry): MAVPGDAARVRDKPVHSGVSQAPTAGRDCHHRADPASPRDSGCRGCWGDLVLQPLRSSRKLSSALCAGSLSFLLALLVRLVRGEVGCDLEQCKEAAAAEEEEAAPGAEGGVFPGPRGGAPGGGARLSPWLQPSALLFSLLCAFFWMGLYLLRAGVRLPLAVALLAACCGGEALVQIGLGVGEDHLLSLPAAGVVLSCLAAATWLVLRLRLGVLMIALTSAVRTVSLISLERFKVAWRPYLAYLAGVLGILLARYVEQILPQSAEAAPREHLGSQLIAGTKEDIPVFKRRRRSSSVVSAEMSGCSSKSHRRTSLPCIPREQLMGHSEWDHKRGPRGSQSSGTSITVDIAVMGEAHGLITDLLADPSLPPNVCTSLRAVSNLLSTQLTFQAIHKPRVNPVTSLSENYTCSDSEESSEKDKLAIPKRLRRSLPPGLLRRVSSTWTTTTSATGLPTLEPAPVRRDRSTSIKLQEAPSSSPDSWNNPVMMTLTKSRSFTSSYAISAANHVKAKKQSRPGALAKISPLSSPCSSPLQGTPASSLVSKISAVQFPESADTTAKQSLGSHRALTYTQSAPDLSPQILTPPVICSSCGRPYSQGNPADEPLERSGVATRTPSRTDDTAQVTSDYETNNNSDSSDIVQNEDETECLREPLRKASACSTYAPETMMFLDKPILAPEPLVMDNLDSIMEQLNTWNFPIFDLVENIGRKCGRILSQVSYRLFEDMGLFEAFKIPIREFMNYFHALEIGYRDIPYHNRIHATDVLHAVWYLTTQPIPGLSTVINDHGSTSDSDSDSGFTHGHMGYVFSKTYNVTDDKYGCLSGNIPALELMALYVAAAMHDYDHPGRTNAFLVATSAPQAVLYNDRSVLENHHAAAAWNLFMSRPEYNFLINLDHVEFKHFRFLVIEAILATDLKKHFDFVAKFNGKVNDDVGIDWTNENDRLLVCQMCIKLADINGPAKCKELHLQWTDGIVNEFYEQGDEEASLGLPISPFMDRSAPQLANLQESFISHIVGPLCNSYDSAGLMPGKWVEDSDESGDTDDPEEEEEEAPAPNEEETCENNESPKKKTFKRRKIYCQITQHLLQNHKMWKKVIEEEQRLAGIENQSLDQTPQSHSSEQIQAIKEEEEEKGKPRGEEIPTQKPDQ
Sequence of Vasopressin V1a receptor (P37288 whole entry): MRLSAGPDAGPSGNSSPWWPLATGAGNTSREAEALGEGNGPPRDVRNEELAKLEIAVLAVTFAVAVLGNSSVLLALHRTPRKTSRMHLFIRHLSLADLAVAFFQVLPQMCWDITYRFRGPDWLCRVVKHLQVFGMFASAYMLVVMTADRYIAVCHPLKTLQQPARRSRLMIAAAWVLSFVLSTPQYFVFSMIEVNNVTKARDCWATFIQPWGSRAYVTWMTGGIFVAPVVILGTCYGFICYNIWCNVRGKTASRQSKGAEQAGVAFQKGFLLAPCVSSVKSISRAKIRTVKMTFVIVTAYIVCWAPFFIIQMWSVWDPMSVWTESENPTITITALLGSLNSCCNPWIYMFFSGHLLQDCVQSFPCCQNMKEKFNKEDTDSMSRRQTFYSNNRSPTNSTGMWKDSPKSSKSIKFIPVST
Sequence of 5-hydroxytryptamine receptor 2B (P41595 whole entry): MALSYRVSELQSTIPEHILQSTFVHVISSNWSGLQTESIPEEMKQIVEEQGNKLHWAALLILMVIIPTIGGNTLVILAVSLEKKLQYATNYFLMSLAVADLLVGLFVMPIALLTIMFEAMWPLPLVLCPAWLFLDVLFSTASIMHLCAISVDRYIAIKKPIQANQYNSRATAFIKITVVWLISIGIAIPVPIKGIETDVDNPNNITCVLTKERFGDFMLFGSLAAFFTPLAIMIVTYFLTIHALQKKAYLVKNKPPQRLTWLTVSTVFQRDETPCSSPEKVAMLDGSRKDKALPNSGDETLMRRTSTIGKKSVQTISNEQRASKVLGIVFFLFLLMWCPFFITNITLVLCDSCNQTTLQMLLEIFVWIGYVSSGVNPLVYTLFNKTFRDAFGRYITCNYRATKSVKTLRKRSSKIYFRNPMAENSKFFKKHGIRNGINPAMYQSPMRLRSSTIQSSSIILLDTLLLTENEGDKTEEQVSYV
Sequence of Mu-type opioid receptor (P35372 whole entry): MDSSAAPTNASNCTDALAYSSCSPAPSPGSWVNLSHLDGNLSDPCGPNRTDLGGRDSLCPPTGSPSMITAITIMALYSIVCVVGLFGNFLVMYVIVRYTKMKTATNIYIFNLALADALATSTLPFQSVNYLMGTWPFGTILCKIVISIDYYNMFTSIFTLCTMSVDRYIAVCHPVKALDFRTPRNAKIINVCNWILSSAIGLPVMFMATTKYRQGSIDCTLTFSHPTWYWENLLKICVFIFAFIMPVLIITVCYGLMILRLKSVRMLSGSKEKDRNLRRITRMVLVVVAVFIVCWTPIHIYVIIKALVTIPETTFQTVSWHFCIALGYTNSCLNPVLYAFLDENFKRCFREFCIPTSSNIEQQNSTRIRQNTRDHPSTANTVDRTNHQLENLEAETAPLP

## C[C@@H](NCCCc1cccc(C(F)(F)F)c1)c1cccc2ccccc12
Adenosine receptor A2a
  AC50: > 30 µM
Adenosine receptor A3
  AC50: 8.1 µM
[1]
  AC50: > 30 µM
[2]
  AC50: > 30 µM
Vasopressin V1a receptor
  AC50: > 30 µM
Vasopressin V2 receptor
  AC50: 20 µM
[3]
  AC50: > 30 µM
[4]
  AC50: > 30 µM
Motilin receptor
  AC50: 22 µM
[5]
  AC50: > 30 µM
Mu-type opioid receptor
  AC50: 2.5 µM
[6]
  AC50: > 30 µM
[7]
  AC50: > 30 µM

## CCN1CCN(Cc2ccc(Nc3ncc(F)c(-c4cc(F)c5nc(C)n(C(C)C)c5c4)n3)nc2)CC1 [ABEMACICLIB]
Adenosine receptor A2a
  AC50: > 30 µM
Adenosine receptor A3
  AC50: > 30 µM
[1]
  AC50: > 30 µM
[2]
  AC50: > 30 µM
Vasopressin V1a receptor
  AC50: > 30 µM
[3]
  AC50: > 30 µM
[8]
  AC50: 19 µM
Motilin receptor
  AC50: > 30 µM
[5]
  AC50: 3.2 µM
Mu-type opioid receptor
  AC50: > 30 µM
[6]
  AC50: > 30 µM
[7]
  AC50: > 30 µM

## COc1ccccc1Oc1c(NS(=O)(=O)c2ccc(C(C)(C)C)cc2)nc(-c2ncccn2)nc1OCCO [BOSENTAN]
Adenosine receptor A2a
  AC50: > 30 µM
Adenosine receptor A3
  AC50: > 30 µM
[1]
  AC50: > 30 µM
[2]
  AC50: > 30 µM
Vasopressin V1a receptor
  AC50: > 30 µM
Vasopressin V2 receptor
  AC50: > 30 µM
[3]
  AC50: > 10 µM
[4]
  AC50: > 10 µM
[8]
  AC50: > 10 µM
Motilin receptor
  AC50: > 10 µM
[5]
  AC50: > 30 µM
Mu-type opioid receptor
  AC50: > 30 µM
[6]
  AC50: > 30 µM
[7]
  AC50: > 30 µM

## O=C1CCc2cc(OCCCCc3nnnn3C3CCCCC3)ccc2N1 [CILOSTAZOL]
Adenosine receptor A2a
  AC50: > 30 µM
Adenosine receptor A3
  AC50: 18.2 µM
[1]
  AC50: > 30 µM
[2]
  AC50: > 30 µM
Vasopressin V2 receptor
  AC50: > 30 µM
[3]
  AC50: > 30 µM
[4]
  AC50: > 30 µM
[8]
  AC50: > 30 µM
Motilin receptor
  AC50: > 30 µM
[5]
  AC50: 23.4 µM
Mu-type opioid receptor
  AC50: > 30 µM
[6]
  AC50: 0.424 µM
[7]
  AC50: > 30 µM

## C[C@@H](Oc1cc(-c2cnn(C3CCNCC3)c2)cnc1N)c1c(Cl)ccc(F)c1Cl [CRIZOTINIB]
Adenosine receptor A2a
  AC50: > 30 µM
Adenosine receptor A3
  AC50: 8.93 µM
[2]
  AC50: > 30 µM
Vasopressin V1a receptor
  AC50: > 30 µM
Vasopressin V2 receptor
  AC50: > 30 µM
[3]
  AC50: > 10 µM
[8]
  AC50: 2.7 µM
Motilin receptor
  AC50: 16 µM
[5]
  AC50: 4.8 µM
Mu-type opioid receptor
  AC50: > 30 µM
[6]
  AC50: > 30 µM

## CC(C)N(CCC(C(N)=O)(c1ccccc1)c1ccccn1)C(C)C (stereo unspecified) [DISOPYRAMIDE]
Adenosine receptor A2a
  AC50: > 30 µM
Adenosine receptor A3
  AC50: > 30 µM
[1]
  AC50: > 30 µM
[2]
  AC50: > 30 µM
Vasopressin V1a receptor
  AC50: > 30 µM
Vasopressin V2 receptor
  AC50: > 30 µM
[3]
  AC50: > 10 µM
[4]
  AC50: > 10 µM
[8]
  AC50: > 10 µM
Motilin receptor
  AC50: > 30 µM
[5]
  AC50: > 10 µM
Mu-type opioid receptor
  AC50: > 30 µM
[6]
  AC50: 5.4 µM
[7]
  AC50: > 30 µM

## C[C@H]1c2cccc(O)c2C(=O)C2=C(O)[C@]3(O)C(=O)C(C(N)=O)=C(O)[C@@H](N(C)C)[C@@H]3[C@@H](O)[C@@H]21 [DOXYCYCLINE]
Adenosine receptor A2a
  AC50: > 30 µM
Adenosine receptor A3
  AC50: > 30 µM
[1]
  AC50: > 30 µM
[2]
  AC50: > 30 µM
Vasopressin V1a receptor
  AC50: > 10 µM
Vasopressin V2 receptor
  AC50: > 30 µM
[3]
  AC50: > 10 µM
[4]
  AC50: > 10 µM
[8]
  AC50: > 10 µM
Motilin receptor
  AC50: > 10 µM
[5]
  AC50: > 30 µM
Mu-type opioid receptor
  AC50: > 30 µM
[6]
  AC50: > 30 µM
[7]
  AC50: > 30 µM

## C=C[C@H]1C[N@@]2CC[C@H]1C[C@@H]2[C@@H](O)c1ccnc2ccc(OC)cc12 [QUINIDINE]
Adenosine receptor A2a
  AC50: > 30 µM
Adenosine receptor A3
  AC50: > 30 µM
[2]
  AC50: > 30 µM
Vasopressin V1a receptor
  AC50: > 30 µM
Vasopressin V2 receptor
  AC50: > 30 µM
[3]
  AC50: > 10 µM
Motilin receptor
  AC50: > 10 µM
[5]
  AC50: > 30 µM
Mu-type opioid receptor
  AC50: 6.2 µM
[6]
  AC50: > 30 µM
